Measurements taken from patent US20100144712A1 (priority 2007, published 2010).
In brackets after ≈: the same amount, converted by molar mass.

Assays:
Type in all cases: cell-based
[1] = tested on: Candida albican ATCC 90873; assay: In vitro antifungal activity (MIC80), Candida albican ATCC 90873; conditions: Candida, ATCC90873; Table 2, ATCC 90873; read-out: Minimal inhibitory concentration (MIC80)
Outline: (§1)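 Broth microdilution in RPMI 1640 with 2% (v/v) final DMSO, test solutions 0.25 to 256 […]. Inoculum of 1.0×10^3–5.0×10^3 CFU/ml came from colonies grown 2–3 days at 35 °C, and alamarBlue was added. MIC80 is the lowest concentration reducing growth by 80% versus untreated control.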

[2] = tested on: Candida albican ATCC MYA-574; assay: In vitro antifungal activity (MIC80), Candida albican ATCC MYA-574; conditions: Candida; Table 2, MYA 574; read-out: Minimal inhibitory concentration (MIC80)
Outline: as §1

[3] = tested on: Candida albican ATCC 62342; assay: In vitro antifungal activity (MIC80), Candida albican ATCC 62342; conditions: Candida, ATCC62342; Table 2, 62342; read-out: Minimal inhibitory concentration (MIC80)
Outline: as §1

[4] = tested on: Candida albican ATCC MYA-573; assay: In vitro antifungal activity (MIC80), Candida albican ATCC MYA-573; conditions: Candida; Table 2, MYA 573; read-out: Minimal inhibitory concentration (MIC80)
Outline: as §1

[5] = tested on: Aspergillus fumigatus (ATCC 16424); assay: In vitro antifungal activity (MIC80), Aspergillus fumigatus ATCC 16424; conditions: Aspergillus fumigatus, ATCC16424, Table 2, ATCC 16424; read-out: Minimal inhibitory concentration (MIC80)
Experimental: (§2) In vitro antifungal activities of the inventive antifungal compounds were evaluated using test strains including Candida albican (ATCC 90873, 204276, 62342, 64124, 64550, 96901, MYA-573, MYA-574, MYA-575, MYA-576, MYA-1003) and Aspergillus fumigatus (ATCC 16424). Test samples and positive control samples were prepared by dissolving the inventive compounds and comparative compounds, i.e., amphotericin B, fluconazole and itraconazole, in DMSO, respectively, and each successively diluted with medium to obtain test and positive control solutions having test compound concentrations of 0.125 μg/ml to a maximum concentration not generating turbidity. Minimal inhibitory concentration (MIC80) of each compound was determined as the lowest concentration of the test compounds required to reduce growth by 80% relative to a control strain not treated.
(§3) 1) Test strain: Candida albican ATCC 90873, 204276, 62342, 64124, 64550, 96901, MYA-573, MYA-574, MYA-575, MYA-576, MYA-1003, and Aspergillus fumigatus ATCC 16424 were commercially obtained from The American Type Culture Collection (ATCC) and subcultured in CHEMON Co. Ltd. (amphotericin B was commercially purchased from Sigma, and fluconazole and itraconazole were prepared according to methods described in British Patent No. 2,099,818; and U.S. Pat. No. 4,267,179, respectively).
(§4) 2) Medium and culture condition: Candida albican was cultured in Sabourad Dextrose Agar, YM Agar or Potato Dextrose Agar according to ATCC information at a temperature of 37° C., 35° C., 30° C. or 25° C. Aspergillus fumigatus was cultured in Malt Extract Agar or Potato Dextrose Agar at a temperature ranging from 24 to 27° C.
(§5) 3) Preparation of test samples: the inventive compounds and comparative compounds were each diluted with DMSO to obtain 1 to 2 ml of a test sample in a concentration of 100-folds of the determining maximum concentration (256 μg/ml).
(§6) The test samples were each successively diluted with RPMI 1640 to obtain test solutions having concentrations of […] in a 12×75 mm sterilized disposable culture tube. The final concentration of DMSO was adjusted to […] (v/v).
(§7) 5) Preparation of strain solution and inoculation
(§8) Candida albican strains were each subcultured in Sabourad Dextrose Agar, YM Agar or Potato Dextrose Agar medium at 35° C. for 2˜3 days. In the case of yeasts, a single colony was taken from prominent colonies and suspended in 0.85% sterile physiological saline solution and the turbidity of the suspension was adjusted to 80˜82% at 530 nm, and then diluted 50-fold with RPMI 1640 medium to 1.0×10^3˜5.0×10^3 CFU/ml. The turbidity of fungi was adjusted to 80˜82% and the suspension was diluted 50-fold to […]. Aspergillus fumigatus strains were subcultured in Malt Extract Agar for 7˜10 days, and a single colony was taken from prominent colonies and suspended in 0.85% sterile physiological saline solution and the suspension was adjusted to 0.108 at 530 nm, and then diluted 1000-fold with RPMI 1640 medium to 0.4×10^2˜5×10^4 CFU/ml. The turbidity of fungi was adjusted to 80˜82% and the suspension was diluted 50-fold to 0.4102˜0.5104 CFU/ml.
(§9) The strain solutions thus obtained were each seeded into a sterilized 96-well microplate, 0.1 ml of each test solution were added thereto, and […] of alamarblue was treated to each well (Biosource, #DAL1100). This procedure was repeated 2 times.
(§10) Minimal inhibitory concentration (MIC80) of each compound was determined as the lowest concentration of the test compounds required to reduce growth by 80% relative to a control strain not treated.
MIC80 of each of the compounds of which antifungal activities can be confirmed by Table 2 was determined using other test strains, i.e., Aspergillus fumigatus ATCC 16424 and MYA-1163, Aspergillus terreus ATCC 28301, Aspergillus flavus ATCC MYA-1004, and Aspergillus niger ATCC 9142.

[6] = tested on: Candida albican ATCC MYA-576; assay: In vitro antifungal activity (MIC80), Candida albican ATCC MYA-576; conditions: Candida; Table 2, MYA 576; read-out: Minimal inhibitory concentration (MIC80)
Outline: as §1

[7] = tested on: Candida albican ATCC 96901; assay: In vitro antifungal activity (MIC80), Candida albican ATCC 96901; conditions: Candida, ATCC96901; Table 2, ATCC 96901; read-out: Minimal inhibitory concentration (MIC80)
Outline: as §1

[8] = tested on: Candida albican ATCC 64124; assay: In vitro antifungal activity (MIC80), Candida albican ATCC 64124; conditions: Candida, ATCC64124; Table 2, 64124; read-out: Minimal inhibitory concentration (MIC80)
Outline: as §1

[9] = tested on: Candida albican ATCC MYA-1003; assay: In vitro antifungal activity (MIC80), Candida albican ATCC MYA-1003; conditions: Candida; Table 2, MYA 1003; read-out: Minimal inhibitory concentration (MIC80)
Outline: as §1

[10] = tested on: Candida albican ATCC 64550; assay: In vitro antifungal activity (MIC80), Candida albican ATCC 64550; conditions: Candida, ATCC64550; Table 2, 64550; read-out: Minimal inhibitory concentration (MIC80)
Outline: as §1

[11] = tested on: Candida albican ATCC MYA-575; assay: In vitro antifungal activity (MIC80), Candida albican ATCC MYA-575; conditions: Candida; Table 2, MYA 575; read-out: Minimal inhibitory concentration (MIC80)
Outline: as §1

[12] = tested on: Candida albican ATCC 204276; assay: In vitro antifungal activity (MIC80), Candida albican ATCC 204276; conditions: ATCC204276, Table 2, 204276, read-out: Minimal inhibitory concentration (MIC80)
Experimental: as §2, §3, §4, §5, §6, §7, §8, §9, §10

SMILES: C[C@@H](N1CCN(C(=O)c2nc(-c3ccc(F)cc3)ns2)CC1)[C@](O)(Cn1cncn1)c1ccc(F)cc1F [Example 52, (3-(4-fluorophenyl)-1,2,4-thiadiazol-5-yl)(4-((2R,3R)-3-(2,4-difluorophenyl)-3-hydroxy-4-(1H-1,2,4-triazol-1-yl)butan-2-yl)piperazin-1-yl)methanone]
- MIC80 [1]: 0.125 µg/mL (≈ 0.23 µM)
- MIC80 [2]: > 128 µg/mL
- MIC80 [3]: 4 µg/mL (≈ 7.36 µM)
- MIC80 [4]: 4 µg/mL (≈ 7.36 µM)
- MIC80 [5]: 1 µg/mL (≈ 1.84 µM)
- MIC80 [6]: 0.125 µg/mL (≈ 0.23 µM)
- MIC80 [7]: 32 µg/mL (≈ 58.9 µM)
- MIC80 [8]: > 128 µg/mL
- MIC80 [9]: > 128 µg/mL
- MIC80 [10]: 4 µg/mL (≈ 7.36 µM)
- MIC80 [11]: > 128 µg/mL
- MIC80 [12]: 0.125 µg/mL (≈ 0.23 µM)

SMILES: CC(N1CCN(C(=O)c2cn3c(C(=O)c4ccccc4)cnc3s2)CC1)C(O)(Cn1cncn1)c1ccc(F)cc1F [Example 55, (4-((2R,3R)-3-(2,4-difluorophenyl)-3-hydroxy-4-(1H-1,2,4-triazol-1-yl)butan-2-yl)piperazin-1-yl)(5-benzoyl-imidazo[2,1,-b]-thiazol-2-yl)methanone]
- MIC80 [1]: 0.125 µg/mL (≈ 0.211 µM)
- MIC80 [2]: 8 µg/mL (≈ 13.5 µM)
- MIC80 [3]: 0.5 µg/mL (≈ 0.845 µM)
- MIC80 [4]: 1 µg/mL (≈ 1.69 µM)
- MIC80 [5]: 1 µg/mL (≈ 1.69 µM)
- MIC80 [6]: 0.125 µg/mL (≈ 0.211 µM)
- MIC80 [7]: 8 µg/mL (≈ 13.5 µM)
- MIC80 [8]: 16 µg/mL (≈ 27 µM)
- MIC80 [9]: > 128 µg/mL
- MIC80 [10]: 4 µg/mL (≈ 6.76 µM)
- MIC80 [11]: 8 µg/mL (≈ 13.5 µM)
- MIC80 [12]: 0.125 µg/mL (≈ 0.211 µM)

SMILES: Cc1ccc(C(=O)c2cnc3sc(C(=O)N4CCN([C@H](C)[C@](O)(Cn5cncn5)c5ccc(F)cc5F)CC4)cn23)cc1 [Example 56, (4-((2R,3R)-3-(2,4-difluorophenyl)-3-hydroxy-4-(1H-1,2,4-triazol-1-yl)butan-2-yl)piperazin-1-yl)(5-(4-methylbenzoyl)-imidazo[2,1-b]-thiazol-2-yl)methanone]
- MIC80 [1]: 0.25 µg/mL (≈ 0.413 µM)
- MIC80 [2]: 4 µg/mL (≈ 6.6 µM)
- MIC80 [3]: 0.5 µg/mL (≈ 0.826 µM)
- MIC80 [4]: 1 µg/mL (≈ 1.65 µM)
- MIC80 [5]: 1 µg/mL (≈ 1.65 µM)
- MIC80 [6]: 0.125 µg/mL (≈ 0.206 µM)
- MIC80 [7]: 8 µg/mL (≈ 13.2 µM)
- MIC80 [8]: 8 µg/mL (≈ 13.2 µM)
- MIC80 [9]: > 128 µg/mL
- MIC80 [10]: 2 µg/mL (≈ 3.3 µM)
- MIC80 [11]: 4 µg/mL (≈ 6.6 µM)
- MIC80 [12]: 0.25 µg/mL (≈ 0.413 µM)

SMILES: COc1ccc(C(=O)c2cnc3sc(C(=O)N4CCN(C(C)C(O)(Cn5cncn5)c5ccc(F)cc5F)CC4)cn23)cc1 (stereo not drawn) [Example 57]
- MIC80 [1]: 0.125 µg/mL (≈ 0.201 µM)
- MIC80 [2]: 8 µg/mL (≈ 12.9 µM)
- MIC80 [3]: 0.5 µg/mL (≈ 0.804 µM)
- MIC80 [4]: 1 µg/mL (≈ 1.61 µM)
- MIC80 [5]: 0.5 µg/mL (≈ 0.804 µM)
- MIC80 [6]: 0.125 µg/mL (≈ 0.201 µM)
- MIC80 [7]: 8 µg/mL (≈ 12.9 µM)
- MIC80 [8]: 8 µg/mL (≈ 12.9 µM)
- MIC80 [9]: > 128 µg/mL
- MIC80 [10]: 4 µg/mL (≈ 6.43 µM)
- MIC80 [11]: 8 µg/mL (≈ 12.9 µM)
- MIC80 [12]: 0.125 µg/mL (≈ 0.201 µM)
